According to PubChem BioAssay AID256 (DTP/NCI, 2004):
Toxic doses and inconclusive results are not listed. How the source made its calls: active means survival T/C of 150% or more; inactive means T/C below 125% in these data.

Tested on: CD2F1 mice, L1210 leukemia ip, survival T/C
Assay: NCI In Vivo Anticancer Drug Screen. Data for tumor model L1210 Leukemia (intraperitoneal) in CD2F1 (CDF1) mice
Conditions: higher = longer survival
In short: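 Implant tumor; dose compound or vehicle; measure endpoint in both groups; report treated divided by control.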

[1] = endpoint: mean survival time, dose: 100.0 mg/kg/injection, schedule: Q04DX003 (ip), vehicle: saline with Tween-80
[2] = endpoint: mean survival time, dose: 200.0 mg/kg/injection, schedule: Q04DX003 (ip), vehicle: saline with Tween-80
[3] = endpoint: mean survival time, dose: 400.0 mg/kg/injection, schedule: Q04DX003 (ip), vehicle: saline with Tween-80
[4] = endpoint: mean survival time, dose: 100.0 mg/kg/injection, schedule: Q04DX003 (ip), vehicle: saline
[5] = endpoint: mean survival time, dose: 200.0 mg/kg/injection, schedule: Q04DX003 (ip), vehicle: saline
[6] = endpoint: mean survival time, dose: 400.0 mg/kg/injection, schedule: Q04DX003 (ip), vehicle: saline
[7] = endpoint: mean survival time, dose: 12.5 mg/kg/injection, schedule: Q01DX005 (ip), vehicle: distilled water + Tween-80
[8] = endpoint: mean survival time, dose: 25.0 mg/kg/injection, schedule: Q01DX005 (ip), vehicle: distilled water + Tween-80
[9] = endpoint: mean survival time, dose: 50.0 mg/kg/injection, schedule: Q01DX005 (ip), vehicle: distilled water + Tween-80
[10] = endpoint: mean survival time, dose: 100.0 mg/kg/injection, schedule: Q01DX005 (ip), vehicle: distilled water + Tween-80
[11] = endpoint: mean survival time, dose: 200.0 mg/kg/injection, schedule: Q01DX005 (ip), vehicle: distilled water + Tween-80
[12] = endpoint: mean survival time, dose: 100.0 mg/kg/injection, schedule: Q01DX009 (ip), vehicle: saline with Tween-80
[13] = endpoint: mean survival time, dose: 200.0 mg/kg/injection, schedule: Q01DX009 (ip), vehicle: saline with Tween-80
[14] = endpoint: mean survival time, dose: 400.0 mg/kg/injection, schedule: Q01DX009 (ip), vehicle: saline with Tween-80
[15] = endpoint: mean survival time, dose: 100.0 mg/kg/injection, schedule: Q01DX001 (ip), vehicle: saline
[16] = endpoint: mean survival time, dose: 100.0 mg/kg/injection, schedule: Q01DX009 (ip), vehicle: saline sonified
[17] = endpoint: mean survival time, dose: 200.0 mg/kg/injection, schedule: Q01DX009 (ip), vehicle: saline sonified
[18] = endpoint: mean survival time, dose: 400.0 mg/kg/injection, schedule: Q01DX009 (ip), vehicle: saline sonified

Measured: T/C

O=C(Nc1ccccc1I)c1ccccc1
inactive: [1] 110 % of control | [2] 98 % of control | [3] 98 % of control

CSC/C(=N\Nc1ccc([N+](=O)[O-])cc1[N+](=O)[O-])c1ccccc1
inactive: endpoint: mean survival time, dose: 50.0 mg/kg/injection, schedule: Q01DX001 (ip), vehicle: saline with Tween-80 98 % of control | endpoint: mean survival time, dose: 100.0 mg/kg/injection, schedule: Q01DX001 (ip), vehicle: saline with Tween-80 93 % of control | endpoint: mean survival time, dose: 200.0 mg/kg/injection, schedule: Q01DX001 (ip), vehicle: saline with Tween-80 90 % of control

O=C(C1CC1c1ccccc1)N1CCC(Nc2ccccc2)CC1 (stereo not drawn)
inactive: endpoint: mean survival time, dose: 100.0 mg/kg/injection, schedule: Q04DX002 (ip), vehicle: other 102 % of control | endpoint: mean survival time, dose: 200.0 mg/kg/injection, schedule: Q04DX002 (ip), vehicle: other 94 % of control | endpoint: mean survival time, dose: 400.0 mg/kg/injection, schedule: Q04DX002 (ip), vehicle: other 90 % of control

CCCCC=C1CC(C)CCC(C)C1 (stereo not drawn)
inactive: [4] 101 % of control | [5] 104 % of control | [6] 104 % of control

CNC(=O)OC
inactive: [4] 102 % of control | [5] 110 % of control | [6] 108 % of control

CC1(C)OCC(C2OC(On3nnc4ccc(Cl)cc43)C3OC(C)(C)OC23)O1 (stereo not drawn)
inactive: [7] 98 % of control | [8] 96 % of control | [9] 105 % of control | [10] 96 % of control | [11] 105 % of control

[Cl][Pt][Cl].c1ccc([PH+](CC[PH+](c2ccccc2)c2ccccc2)c2ccccc2)cc1
inactive: endpoint: mean survival time, dose: 37.5 mg/kg/injection, schedule: Q04DX003 (ip), vehicle: saline 98 % of control | endpoint: mean survival time, dose: 75.0 mg/kg/injection, schedule: Q04DX003 (ip), vehicle: saline 93 % of control | endpoint: mean survival time, dose: 150.0 mg/kg/injection, schedule: Q04DX003 (ip), vehicle: saline 96 % of control | endpoint: mean survival time, dose: 300.0 mg/kg/injection, schedule: Q04DX003 (ip), vehicle: saline 95 % of control

Cc1ccc(S(=O)(=O)/C=C(\I)c2ccccc2)cc1
inactive: [12] 91 % of control | [1] 96 % of control | [13] 94 % of control | [2] 96 % of control | [14] 94 % of control | [3] 93 % of control

COC12C(COC(N)=O)C3=C(C(=O)C(C)=C(N4CC4C#N)C3=O)N1CC1NC12 (stereo not drawn)
inactive: endpoint: median survival time, dose: 0.19 mg/kg/injection, schedule: Q01DX001 (ip), vehicle: water 120 % of control | endpoint: median survival time, dose: 0.38 mg/kg/injection, schedule: Q01DX001 (ip), vehicle: water 121 % of control | endpoint: median survival time, dose: 0.75 mg/kg/injection, schedule: Q01DX001 (ip), vehicle: water 123 % of control | endpoint: median survival time, dose: 1.5 mg/kg/injection, schedule: Q01DX001 (ip), vehicle: water 121 % of control

COc1cc2c(cc1OC)C(Cc1ccccc1NC(=O)c1ccc(C(=O)Nc3ccccc3CC3c4cc(OC)c(OC)cc4CCN3C)cc1)N(C)CC2 (stereo not drawn)
inactive: [15] 97 % of control | endpoint: mean survival time, dose: 200.0 mg/kg/injection, schedule: Q01DX001 (ip), vehicle: saline 94 % of control | endpoint: mean survival time, dose: 400.0 mg/kg/injection, schedule: Q01DX001 (ip), vehicle: saline 91 % of control

O=c1c2cccc3c2-c2c4c(cccc14)c(O)c1cccc(c3=O)c21
inactive: endpoint: mean survival time, dose: 100.0 mg/kg/injection, schedule: Q04DX003 (ip), vehicle: saline sonified 94 % of control | endpoint: mean survival time, dose: 200.0 mg/kg/injection, schedule: Q04DX003 (ip), vehicle: saline sonified 95 % of control | endpoint: mean survival time, dose: 400.0 mg/kg/injection, schedule: Q04DX003 (ip), vehicle: saline sonified 92 % of control

Cc1nnn2ccccc12
inactive: [15] 95 % of control

CC(C)COC(=O)CN(CC(=O)OCC(C)C)c1ccccc1
inactive: [12] 96 % of control | [1] 110 % of control | [13] 98 % of control | [2] 97 % of control | [14] 103 % of control | [3] 97 % of control

Cc1ccc(C2(c3ccccc3)OC(=O)c3ccccc32)cc1 (stereo not drawn)
inactive: [12] 86 % of control | [1] 89 % of control | [2] 87 % of control | [3] 86 % of control

CC(=O)N(C1=CC(=O)c2ccccc2C1=O)c1ccc(C)cc1
inactive: endpoint: mean survival time, dose: 75.0 mg/kg/injection, schedule: Q01DX001 (ip), vehicle: saline 100 % of control | endpoint: mean survival time, dose: 150.0 mg/kg/injection, schedule: Q01DX001 (ip), vehicle: saline 100 % of control

CC(C)NC(=O)C1C2CCC(CC2)C1C(=O)NC(C)C (stereo not drawn)
inactive: [1] 98 % of control | [2] 98 % of control | [3] 95 % of control

CCn1c(=O)c2nc(Br)n(C3OCC(OC(C)=O)C(OC(C)=O)C3OC(C)=O)c2n(CC)c1=O (stereo not drawn)
inactive: [7] 104 % of control | [8] 104 % of control | [9] 100 % of control | [10] 93 % of control | [11] 88 % of control

NC(N)=NOCC[C@@H](N)C(=O)O
inactive: endpoint: median survival time, dose: 25.0 mg/kg/injection, schedule: Q01DX009 (ip), vehicle: saline 102 % of control | endpoint: median survival time, dose: 50.0 mg/kg/injection, schedule: Q01DX009 (ip), vehicle: saline 101 % of control | endpoint: median survival time, dose: 100.0 mg/kg/injection, schedule: Q01DX009 (ip), vehicle: saline 98 % of control | endpoint: median survival time, dose: 200.0 mg/kg/injection, schedule: Q01DX009 (ip), vehicle: saline 103 % of control | endpoint: median survival time, dose: 400.0 mg/kg/injection, schedule: Q01DX009 (ip), vehicle: saline 102 % of control | endpoint: median survival time, dose: 500.0 mg/kg/injection, schedule: Q01DX001 (ip), vehicle: saline 97 % of control | endpoint: median survival time, dose: 750.0 mg/kg/injection, schedule: Q01DX001 (ip), vehicle: saline 96 % of control | endpoint: median survival time, dose: 1000.0 mg/kg/injection, schedule: Q01DX001 (ip), vehicle: saline 84 % of control | endpoint: median survival time, dose: 2500.0 mg/kg/injection, schedule: Q01DX001 (ip), vehicle: saline 97 % of control

CC(C)CC(=O)Nc1ccccc1
inactive: [16] 101 % of control | [17] 102 % of control | [18] 93 % of control

C=C(Br)CN(CC)C(C)=O
inactive: endpoint: mean survival time, dose: 12.5 mg/kg/injection, schedule: Q01DX009 (ip), vehicle: saline 102 % of control | endpoint: mean survival time, dose: 12.5 mg/kg/injection, schedule: Q04DX003 (ip), vehicle: saline 96 % of control | endpoint: mean survival time, dose: 25.0 mg/kg/injection, schedule: Q01DX009 (ip), vehicle: saline 97 % of control | endpoint: mean survival time, dose: 25.0 mg/kg/injection, schedule: Q04DX003 (ip), vehicle: saline 95 % of control | endpoint: mean survival time, dose: 50.0 mg/kg/injection, schedule: Q01DX009 (ip), vehicle: saline 114 % of control | endpoint: mean survival time, dose: 50.0 mg/kg/injection, schedule: Q04DX003 (ip), vehicle: saline 104 % of control

Cc1oc(N)c(C(N)=O)c1C
inactive: [16] 103 % of control | [1] 100 % of control | [17] 93 % of control | [2] 100 % of control | [18] 92 % of control | [3] 94 % of control

CNC(=O)c1ccccc1C(c1ccccc1)C1(O)CCCCC1 (stereo not drawn)
inactive: [1] 101 % of control | [2] 88 % of control | [3] 93 % of control
